Data taken from patent US20030181461A1, “Use of phosphodiesterase antagonists to treat insulin resistance” (priority 2002, published 2003).

Columns and labels:
[1] = tested on: insulin resistance in cats; test: Development of insulin resistance in cats after muscarinic antagonists (RIST); format: in vivo
From the text: To avoid the complexity of the reaction to hypoglycemia, the rapid insulin sensitivity test (RIST) was employed (Lautt et al., Can. J. Physiol. Pharmacol. 76:1080 (1998)) wherein a euglycemic clamp was used following the administration of insulin and the response was quantitated as the amount of glucose required to be infused over the test period in order to hold arterial blood glucose levels constant.

[2] = tested on: insulin sensitivity in atropine-treated rats; test: Rapid insulin sensitivity test (RIST) in rats with atropine-induced 75% HISS-dependent insulin resistance; format: in vivo, Male Sprague Dawley rats; settings: zaprinast 0.1 mg/kg ipv
Protocol: Methods for reversal of HISS-dependent insulin resistance using a phosphodiesterase inhibitor in normal rats Male Sprague Dawley rats (250-300 g) were allowed free access to water and normal rodent food for 1 week prior to all studies. Rats were fasted for 8 hours overnight and fed for 2 hours before the start of study. Rats were anesthetized with pentobarbital-sodium (65 mg/ml, ip injection, 0.1 ml/100 g body weight). Animals were placed on a heated thermostatically controlled surgical table to maintain body temperature during surgery and the experimental procedure. An extra-corporeal arterial-venous shunt (the loop) was established between the right femoral artery and right femoral vein, according to a published, standard operating procedure developed in our laboratory (Xie et al., 1996). The loop allows for regular blood sampling of arterial blood throughout the experiment as well as infusion of intravenous drugs and monitoring of arterial blood pressure. […] A laparotomy was performed and an indwelling portal venous catheter was inserted using a portal vein puncture technique. The portal catheter was used to administer the phosphodiesterase inhibitor directly to the liver. […] At this point, blood samples (25 μl) were taken at regular intervals from the loop and analyzed for glucose concentration. […] Glucose levels were monitored every 2 minutes during and after the infusion of insulin. […]

In the case of `COc1ccccc1CNCCCCCCNCCCCCCCCNCCCCCCNCc1ccccc1OC` [methoctramine], the “Dose required to produce a full (similar degree of) insulin resistance” value [1] is reported as 10^−6 μmol/kg.

With `CCCOc1ccccc1-c1nc2nn[nH]c2c(=O)[nH]1` [zaprinast] the “Reversal of HDIR produced by atropine” value [2] was “able to reverse the HDIR produced by atropine”.
